What all share (format): cell-based
The subject of series [1] is SARS-CoV-2 N-protein. To be noted: HSAEC, qRT-PCR. Background: Real-time PCR tracks product formation cycle by cycle.
The test system of series [2] is SARS-CoV-2 N-protein. The conditions noted are these: HNEpC, qRT-PCR.
Series [3] concerns SARS-CoV-2 N-protein. To be noted: HBTEC, qRT-PCR.
The mark [4] stands for this setting: oligos 24-48 hours, with lipofectamine.
Setting [5] is: oligos 24-48 hours, lipofectamine or Arginine not stated at the result.

Like-named read-outs stand apart in the source and are kept apart here. d = 2'-deoxy (DNA); r = 2'-OH (RNA)

On to “VS_DsiRNA-Cy5: DsiRNA SEQ ID NOs: 23 & 24, target N-protein, Cy5 labeled (chain 1 AAACUAAAAUGUCUGAUAAUGGACC; chain 2 GGUCCAUUAUCAGACAUUUUAGUUUGU; chain 1: sugars from the 5' end r23 d2, backbone not given here; chain 2: chemistry not given here; Cy5 label)”, for which the entries for the “down-regulation of SARS-CoV-2 N-protein expression” value (from here on “down-regulation”) in series [1] (setting [4]), in series [2] (setting [5]) and in series [3] (setting [4]) were “about 5 fold”, “about 90 fold” and “about 4 fold”, respectively.

For “TGTTAATTGGAACGCCTTGTC (FANA modified, pattern not given here, FITC label) [VS_ASO_1-FANA-FITC]”, the “down-regulation” value in series [1] (oligo 24-48 hours, without any reagents) is recorded as “about 6 fold”; in series [2] (without any reagents), “about 350 fold”; in series [3] (without any reagents), “about 8 fold”.

With “TGTTAATTGGAACGCCTTGTC (Cy3 label, position not given here) [VS_ASO_2-Cy3]”, the entries for the “down-regulation” value in series [1] (setting [4]), in series [2] (setting [5]) and in series [3] (setting [4]) were “about 1.5 fold”, “about 15 fold” and “about 6 fold”, respectively.

For the origin of these results see patent US11732264B2, “Compositions and methods for treating COVID-19” (Vast Sea Biotechnology, Inc., priority 2020, dated 2023).
